In EPA's ToxValDB 9.5:
“And” between values parts separate entries of the source, which are not always exact repeats. Identical values can stand only once.

System: Rattus norvegicus
Settings: oral; for NEL / LEL: Crl:CD(SD) BR
[1] = subchronic, duration: 13 weeks, diet, F, Blood: Hematocrit (HCT) + Blood: Mean Corpuscular Volume (MCV) + Brain: Brain Weight, Absolute + Kidney: Urea Nitrogen + Liver: Cholesterol…
[2] = subchronic, duration: 13 weeks, diet, F, Blood: Red Blood Cell (RBC) + Kidney: Kidney Weight, Relative + Liver: Hepatocellular Hypertrophy, Centrilobular + Liver: Liver Weight, …
[3] = subchronic, duration: 13 weeks, diet, F, Sprague-Dawley, Endocrine: Adrenal: Adrenal Gland Weight, Absolute + Endocrine: Adrenal: Adrenal Gland Weight, Relative to Brain + Hepatic: Liver: Liver …
[4] = subchronic, duration: 13 weeks, diet, F, Sprague-Dawley, Hepatic: Liver: Total Bilirubin (TBILI) + Immune: Blood: Monocytes %
[5] = subchronic, duration: 13 weeks, diet, M, Blood: Calcium (CA), Blood + Blood: Globulin (G), Blood + Brain: Brain Weight, Relative + Kidney: Kidney Weight, Relative + Liver: …
[6] = subchronic, duration: 13 weeks, diet, M, Blood: Glucose (GLU), Blood + Blood: Hematocrit (HCT) + Kidney: Kidney Weight, Absolute + Kidney: Kidney Weight, Relative to Brain + Kidney…
[7] = subchronic, duration: 13 weeks, diet, M, Sprague-Dawley, Cardiovascular: Heart: Heart, Degeneration/Necrosis + Endocrine: Adrenal: Adrenal Gland Weight, Absolute + Endocrine: Thyroid/Parathyroid: …
[8] = subchronic, duration: 13 weeks, diet, M, Sprague-Dawley, Endocrine: Adrenal: Adrenal Gland Weight, Relative + Endocrine: Adrenal: Adrenal Gland Weight, Relative to Brain + Endocrine: Adrenal: …
[9] = subchronic, duration: 13 weeks, diet, M, Sprague-Dawley, Immune: Blood: Basophils

O=[N+]([O-])c1ccc(Oc2ccc(Cl)cc2Cl)cc1 [Nitrofen]
NOEL (chronic, diet, M, Wistar, heart: Heart weight + spleen: Spleen weight): 116 mg/kg-day | LOEL (chronic, diet, M, Wistar, kidney: Kidney weight + liver: Liver weight + testes: Testes weight): 116 mg/kg-day | NOEL (chronic, gavage, F, Wistar, heart: Heart weight + kidney: Kidney weight + liver: Liver weight): 127 mg/kg-day | LOEL (chronic, gavage, F, Wistar, spleen: Spleen weight): 127 mg/kg-day | LOEL (subchronic, diet, F, Wistar, heart: Heart weight + kidney: Kidney weight): 1280 mg/kg-day | LOEL (subchronic, diet, F, Wistar, liver: Liver weight): 10 mg/kg-day | NOEL (subchronic, diet, F, Wistar, spleen: Spleen weight): 1280 mg/kg-day | LOEL (subchronic, diet, M, Sprague-Dawley, Albumin + Cholesterol + Globulin + Glucose + Terminal body weight + Total protein): 186 mg/kg-day | LOEL (subchronic, diet, M, Sprague-Dawley, liver: Relative liver weight + Relative kidney weight + testes: Relative Testes weight): 37 mg/kg-day | LOEL (subchronic, diet, M, Wistar, heart: Heart weight + spleen: Spleen weight): 1150 mg/kg-day | LOEL (subchronic, diet, M, Wistar, kidney: Kidney Weight + testes: Testes weight): 230 mg/kg-day | LOEL (subchronic, diet, M, Wistar, liver: Liver weight): 46 mg/kg-day

CN(CCO)S(=O)(=O)C(F)(F)C(F)(F)C(F)(F)C(F)(F)C(F)(F)C(F)(F)C(F)(F)C(F)(F)F [N-Methyl-N-(2-hydroxyethyl)perfluorooctanesulfonamide]
NEL (chronic, duration: 14 weeks, diet, M/F, Eye: Ophthalmology, Unspecified + Whole Body: Clinical Observations): 7.8 mg/kg-day and 7.27 mg/kg-day | NEL (subchronic, duration: 13 weeks, diet, F, Adrenal: Adrenal Cortex Histopathology + Adrenal: Adrenal Gland Weight, Absolute + Adrenal: Adrenal Gland Weight, Relative + Adrenal: …): 9.6 mg/kg-day and 7.7 mg/kg-day | LEL [1]: 9.6 mg/kg-day and 7.7 mg/kg-day | NEL [1]: 2.88 mg/kg-day and 2.59 mg/kg-day | LEL [2]: 2.88 mg/kg-day and 2.59 mg/kg-day | NEL [2]: 0.288 mg/kg-day and 0.24 mg/kg-day | LEL (subchronic, duration: 13 weeks, diet, F, Brain: Brain Weight, Relative + Whole Body: Body Weight Change): 0.288 mg/kg-day and 0.24 mg/kg-day | NOAEL (subchronic, duration: 13 weeks, diet, F, Sprague-Dawley, Cardiovascular: Aorta: Aorta Histopathology + Cardiovascular: Heart: Heart, Degeneration/Necrosis + Endocrine: Adrenal: Adrenal Cortex …): 0.203 mg/kg-day | LOAEL [3]: 6.84 mg/kg-day | NOAEL [3]: 2.04 mg/kg-day | NOAEL (subchronic, duration: 13 weeks, diet, F, Sprague-Dawley, Endocrine: Adrenal: Adrenal Medulla Histopathology + Endocrine: Thyroid/Parathyroid: Thyroid/Parathyroid Gland Weight, Relative to Brain + …): 6.84 mg/kg-day | LOAEL (subchronic, duration: 13 weeks, diet, F, Sprague-Dawley, General Toxicity: Whole Body: Body Weight Change + General Toxicity: Whole Body: Body Weight, Absolute + Hematologic: Blood: Inorganic …): 0.203 mg/kg-day | LOAEL [4]: 19.2 mg/kg-day | NOAEL [4]: 1.92 mg/kg-day | NEL (subchronic, duration: 13 weeks, diet, M, Adrenal: Adrenal Cortex Histopathology + Adrenal: Adrenal Gland Weight, Absolute + Adrenal: Adrenal Gland Weight, Relative + Adrenal: …): 6.84 mg/kg-day and 9.6 mg/kg-day | LEL [5]: 2.04 mg/kg-day and 2.88 mg/kg-day | NEL [5]: 0.203 mg/kg-day and 0.288 mg/kg-day | LEL [6]: 6.84 mg/kg-day and 9.6 mg/kg-day | NEL [6]: 2.04 mg/kg-day and 2.88 mg/kg-day | LEL (subchronic, duration: 13 weeks, diet, M, Whole Body: Body Weight Change): 0.203 mg/kg-day and 0.288 mg/kg-day | LOAEL (subchronic, duration: 13 weeks, diet, M, Sprague-Dawley, Cardiovascular: Aorta: Aorta Histopathology + Cardiovascular: Heart: Heart, Degeneration/Necrosis + Endocrine: Adrenal: Adrenal Cortex …): 0.203 mg/kg-day | NOAEL (subchronic, duration: 13 weeks, diet, M, Sprague-Dawley, Cardiovascular: Aorta: Aorta Histopathology + Endocrine: Adrenal: Adrenal Cortex Histopathology + Endocrine: Pituitary: Pituitary Gland …): 6.84 mg/kg-day | LOAEL [7]: 6.84 mg/kg-day | NOAEL [7]: 2.04 mg/kg-day | LOAEL [8]: 2.04 mg/kg-day | NOAEL [8]: 0.203 mg/kg-day | LOAEL (subchronic, duration: 13 weeks, diet, M, Sprague-Dawley, Hematologic: Blood: Hematocrit (HCT) + Hematologic: Blood: Mean Corpuscular Hemoglobin Concentration (MCHC) + Hepatic: Liver: Aspartate …): 0.203 mg/kg-day | LOAEL [9]: 19.2 mg/kg-day | NOAEL [9]: 1.92 mg/kg-day
